Experiments:
[1] = biological target: EGFR (murine) (UniProt P00533); conditions: f/l herc cells
[2] = biological target: EGFR (human) (UniProt P00533); conditions: kb
Chain of EGFR (human) (P00533 whole entry, looked up): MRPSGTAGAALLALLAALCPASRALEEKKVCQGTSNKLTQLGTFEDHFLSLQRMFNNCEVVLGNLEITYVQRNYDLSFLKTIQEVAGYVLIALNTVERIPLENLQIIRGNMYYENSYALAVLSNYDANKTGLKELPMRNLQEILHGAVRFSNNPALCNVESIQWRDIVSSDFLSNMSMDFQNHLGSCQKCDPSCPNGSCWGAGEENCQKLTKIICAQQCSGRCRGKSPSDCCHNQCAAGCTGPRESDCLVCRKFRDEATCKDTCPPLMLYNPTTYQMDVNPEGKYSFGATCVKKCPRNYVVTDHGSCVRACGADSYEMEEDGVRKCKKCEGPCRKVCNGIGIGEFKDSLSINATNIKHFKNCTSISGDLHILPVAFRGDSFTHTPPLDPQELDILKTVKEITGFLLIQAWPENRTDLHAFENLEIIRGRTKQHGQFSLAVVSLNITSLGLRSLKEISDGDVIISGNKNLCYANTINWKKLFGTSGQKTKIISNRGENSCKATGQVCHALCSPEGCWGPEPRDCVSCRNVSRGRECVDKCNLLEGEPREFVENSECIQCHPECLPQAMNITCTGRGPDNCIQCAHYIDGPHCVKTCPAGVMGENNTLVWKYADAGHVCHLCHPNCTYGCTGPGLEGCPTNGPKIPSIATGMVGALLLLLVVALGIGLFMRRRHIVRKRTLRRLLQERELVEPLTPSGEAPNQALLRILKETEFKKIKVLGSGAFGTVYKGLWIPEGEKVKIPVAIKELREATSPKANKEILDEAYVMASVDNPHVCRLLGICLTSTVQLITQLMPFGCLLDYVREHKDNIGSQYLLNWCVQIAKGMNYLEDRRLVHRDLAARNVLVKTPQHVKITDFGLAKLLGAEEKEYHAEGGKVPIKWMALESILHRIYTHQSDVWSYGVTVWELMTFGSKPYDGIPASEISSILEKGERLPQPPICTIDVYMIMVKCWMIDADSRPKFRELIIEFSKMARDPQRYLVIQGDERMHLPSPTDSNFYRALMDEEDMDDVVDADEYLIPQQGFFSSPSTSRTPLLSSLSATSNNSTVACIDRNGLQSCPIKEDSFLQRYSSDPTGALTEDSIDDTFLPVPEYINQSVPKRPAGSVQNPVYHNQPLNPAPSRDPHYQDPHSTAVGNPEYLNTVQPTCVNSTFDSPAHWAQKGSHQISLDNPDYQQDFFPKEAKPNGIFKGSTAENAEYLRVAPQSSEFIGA

Chain of EGFR (murine) (P00533 whole entry, looked up): as above

Question: How did the IC50 [1] turn out when `CC1CC(c2ccc(O)cc2)CN1c1ncc2ncnc(Nc3ccc(F)c(Cl)c3)c2n1` (stereo not drawn) was run?
Answer: Its IC50 is greater than 1 nM.

Question: For `Fc1ccc(Nc2ncnc3cnc(N4CCCCC4)nc23)cc1Cl`, which IC50 [1] is on record?
Answer: Its IC50 is greater than 1 nM.

Question: For `NCCCCNc1ncc2ncnc(Nc3ccc(F)c(Cl)c3)c2n1`, which IC50 [1] is on record?
Answer: The IC50 was greater than 10 nM.

Question: With `COC(=O)NC1CCN(c2ncc3ncnc(Nc4ccc(F)c(Cl)c4)c3n2)CC1` as the compound, how does the IC50 [1] read?
Answer: The IC50 was greater than 10 nM.

Question: For `COc1cccc(N2CCN(c3ncc4ncnc(Nc5ccc(F)c(Cl)c5)c4n3)CC2)c1`, which IC50 [1] is on record?
Answer: Its IC50 is greater than 20 nM.

Question: `CN1CCCN(c2ncc3ncnc(Nc4ccc(F)c(Cl)c4)c3n2)CC1` was tested. Which IC50 [1] did it give?
Answer: The IC50 was greater than 10 nM.

Question: For `O[C@H]1CC[C@H](Nc2ncc3ncnc(Nc4cccc(Oc5ccccc5)c4)c3n2)CC1`, which IC50 [1] is on record?
Answer: The IC50 was greater than 10 nM.

Question: `NCC1CCC(CNc2ncc3ncnc(Nc4ccc(F)c(Cl)c4)c3n2)CC1` (stereo not drawn) was tested. Which IC50 [1] did it give?
Answer: Its IC50 is greater than 1 nM.

Question: What about the IC50 [2] of the same compound?
Answer: Its IC50 is 100 to 1000 nM.

Question: With `NCCCCCNc1ncc2ncnc(Nc3ccc(F)c(Cl)c3)c2n1` as the compound, how does the IC50 [1] read?
Answer: The IC50 was greater than 1 nM.

Question: `OC1CCN(c2ncc3ncnc(Nc4ccc(F)c(Cl)c4)c3n2)CC1` was tested. Which IC50 [1] did it give?
Answer: The IC50 was greater than 1 nM.

Question: Which IC50 [1] does the source give for `CCN(CCO)c1ncc2ncnc(Nc3ccc(F)c(Cl)c3)c2n1` here?
Answer: Its IC50 is greater than 1 nM.

Question: How did the IC50 [1] turn out when `COC(=O)[C@H]1CC[C@H](Nc2ncc3ncnc(Nc4cc(Cl)c(N)c(Cl)c4)c3n2)CC1` was run?
Answer: Its IC50 is greater than 10 nM.

Question: `Fc1ccc(Nc2ncnc3cnc(N4CCC(C5CCNCC5)CC4)nc23)cc1Cl` was tested. Which IC50 [1] did it give?
Answer: Its IC50 is greater than 1 nM.

Question: What about the IC50 [2] of the same compound?
Answer: Its IC50 is 100 to 1000 nM.

Question: `Fc1ccc(Nc2ncnc3cnc(N4CCCCCC4)nc23)cc1Cl` was tested. Which IC50 [1] did it give?
Answer: Its IC50 is greater than 1 nM.

Question: Which IC50 [1] does the source give for `NCCNc1ncc2ncnc(Nc3ccc(F)c(Cl)c3)c2n1` here?
Answer: Its IC50 is greater than 10 nM.

Question: How did the IC50 [1] turn out when `NCC1CCCN(c2ncc3ncnc(Nc4ccc(F)c(Cl)c4)c3n2)C1` (stereo not drawn) was run?
Answer: The IC50 was greater than 1 nM.

Question: `COC(=O)N1CCC(Nc2ncc3ncnc(Nc4ccc(F)c(Cl)c4)c3n2)CC1` was tested. Which IC50 [1] did it give?
Answer: The IC50 was greater than 10 nM.

Question: And the IC50 [2]?
Answer: The IC50 was 100 to 1000 nM.

Question: How did the IC50 [1] turn out when `COC(=O)[C@H]1CC[C@H](Nc2ncc3ncnc(Nc4ccc(F)c(Cl)c4)c3n2)CC1` was run?
Answer: The IC50 was greater than 10 nM.

Question: Which IC50 [1] does the source give for `Nc1c(Cl)cc(Nc2ncnc3cnc(N[C@H]4CC[C@H](C(=O)N5CCCC5)CC4)nc23)cc1Cl` here?
Answer: Its IC50 is greater than 1 nM.

Question: What about the IC50 [2] of the same compound?
Answer: The IC50 was 100 to 1000 nM.

Question: How did the IC50 [1] turn out when `NC[C@H]1CC[C@H](Nc2ncc3ncnc(Nc4ccc(F)c(Cl)c4)c3n2)CC1` was run?
Answer: Its IC50 is greater than 1 nM.

Question: How did the IC50 [1] turn out when `COC(CNc1ncc2ncnc(Nc3ccc(F)c(Cl)c3)c2n1)OC` was run?
Answer: The IC50 was greater than 20 nM.

Question: For `Fc1ccc(Nc2ncnc3cnc(NC4CN5CCC4CC5)nc23)cc1Cl` (stereo not drawn), which IC50 [1] is on record?
Answer: Its IC50 is greater than 10 nM.

Question: And the IC50 [2]?
Answer: Its IC50 is 100 to 1000 nM.

Question: `CC(CN1CCCCC1)Nc1ncc2ncnc(Nc3ccc(F)c(Cl)c3)c2n1` (stereo not drawn) was tested. Which IC50 [1] did it give?
Answer: The IC50 was greater than 1 nM.

Question: And the IC50 [2]?
Answer: The IC50 was 100 to 1000 nM.

Question: With `O=C(N1CCOCC1)N1CCN(CCNc2ncc3ncnc(Nc4ccc(F)c(Cl)c4)c3n2)CC1` as the compound, how does the IC50 [1] read?
Answer: The IC50 was greater than 1 nM.

Question: With `Fc1ccc(Nc2ncnc3cnc(NCC45CCN(CC4)CC5)nc23)cc1Cl` as the compound, how does the IC50 [1] read?
Answer: Its IC50 is greater than 1 nM.

Question: For `Fc1ccc(Nc2ncnc3cnc(N4CCC(N5CCCC5)CC4)nc23)cc1Cl`, which IC50 [1] is on record?
Answer: Its IC50 is 10 nM.

Question: `N#CN1CCC(Nc2ncc3ncnc(Nc4ccc(F)c(Cl)c4)c3n2)CC1` was tested. Which IC50 [1] did it give?
Answer: The IC50 was greater than 1 nM.

Question: Which IC50 [1] does the source give for `O=CNC1CCN(c2ncc3ncnc(Nc4ccc(F)c(Cl)c4)c3n2)CC1` here?
Answer: The IC50 was greater than 10 nM.

Question: For `CC(C)(C)OC(=O)N1CCN(CCNc2ncc3ncnc(Nc4ccc(F)c(Cl)c4)c3n2)CC1`, which IC50 [1] is on record?
Answer: Its IC50 is greater than 1 nM.

Question: `COc1ccccc1N1CCN(c2ncc3ncnc(Nc4ccc(F)c(Cl)c4)c3n2)CC1` was tested. Which IC50 [1] did it give?
Answer: Its IC50 is greater than 20 nM.

Question: For `CC(C)(C)OC(=O)N1CCC(CNc2ncc3ncnc(Nc4ccc(F)c(Cl)c4)c3n2)CC1`, which IC50 [1] is on record?
Answer: The IC50 was greater than 20 nM.

Question: For `CC(C)(C)OC(=O)N1CCCC(Nc2ncc3ncnc(Nc4ccc(F)c(Cl)c4)c3n2)CC1` (stereo not drawn), which IC50 [1] is on record?
Answer: The IC50 was greater than 10 nM.

Question: For `NCC1CCN(c2ncc3ncnc(Nc4ccc(F)c(Cl)c4)c3n2)CC1`, which IC50 [1] is on record?
Answer: The IC50 was greater than 1 nM.

Question: And the IC50 [2]?
Answer: The IC50 was 100 to 1000 nM.

Question: How did the IC50 [1] turn out when `Nc1cc(Cl)c(Nc2ncnc3cnc(N[C@H]4CC[C@H](O)CC4)nc23)cc1Cl` was run?
Answer: The IC50 was greater than 10 nM.

Question: Which IC50 [1] does the source give for `Nc1c(Cl)cc(Nc2ncnc3cnc(N[C@H]4CC[C@H](C(=O)O)CC4)nc23)cc1Cl` here?
Answer: Its IC50 is greater than 1 nM.

Question: And the IC50 [2]?
Answer: The IC50 was 100 to 1000 nM.

Question: Which IC50 [1] does the source give for `CN1CCN(C2CCC(Nc3ncc4ncnc(Nc5ccc(F)c(Cl)c5)c4n3)CC2)CC1` (stereo not drawn) here?
Answer: Its IC50 is greater than 1 nM.

Question: Which IC50 [1] does the source give for `Fc1ccc(Nc2ncnc3cnc(N4CCCNCC4)nc23)cc1Cl` here?
Answer: The IC50 was greater than 10 nM.

Question: `Fc1ccc(Nc2ncnc3cnc(NC4CCCNCC4)nc23)cc1Cl` (stereo not drawn) was tested. Which IC50 [1] did it give?
Answer: The IC50 was greater than 1 nM.

Question: `OCc1cccc(Nc2ncnc3cnc(N[C@H]4CC[C@H](O)CC4)nc23)c1` was tested. Which IC50 [1] did it give?
Answer: Its IC50 is greater than 1 nM.

Question: `O[C@H]1CC[C@H](Nc2ncc3ncnc(Nc4ccc(-c5ccccc5)cc4)c3n2)CC1` was tested. Which IC50 [1] did it give?
Answer: The IC50 was greater than 10 nM.

Question: For `CN1CCC(CNc2ncc3ncnc(Nc4ccc(F)c(Cl)c4)c3n2)CC1`, which IC50 [1] is on record?
Answer: The IC50 was greater than 1 nM.

Question: Which IC50 [1] does the source give for `Nc1c(Cl)cc(Nc2ncnc3cnc(N[C@H]4CC[C@H](C(=O)N5CCOCC5)CC4)nc23)cc1Cl` here?
Answer: Its IC50 is greater than 1 nM.

Question: And the IC50 [2]?
Answer: The IC50 was 100 to 1000 nM.

Question: `Fc1ccc(Nc2ncnc3cnc(NCC4CCNCC4)nc23)cc1Cl` was tested. Which IC50 [1] did it give?
Answer: The IC50 was greater than 20 nM.

Question: How did the IC50 [1] turn out when `Nc1ncc2ncnc(Nc3ccc(F)c(Cl)c3)c2n1` was run?
Answer: The IC50 was greater than 1 nM.

Question: With `CC(N)CNc1ncc2ncnc(Nc3ccc(F)c(Cl)c3)c2n1` (stereo not drawn) as the compound, how does the IC50 [1] read?
Answer: The IC50 was greater than 10 nM.

Question: For `CC(C)(C)OC(=O)N1CCC(Nc2ncc3ncnc(Nc4ccc(F)c(Cl)c4)c3n2)CC1`, which IC50 [1] is on record?
Answer: Its IC50 is greater than 10 nM.

Question: For `CN1CCC(C2CCN(c3ncc4ncnc(Nc5ccc(F)c(Cl)c5)c4n3)CC2)CC1`, which IC50 [1] is on record?
Answer: The IC50 was greater than 1 nM.

Question: How did the IC50 [1] turn out when `Fc1ccc(Nc2ncnc3cnc(NC4CCCN(Cc5ccccc5)CC4)nc23)cc1Cl` (stereo not drawn) was run?
Answer: Its IC50 is greater than 1 nM.

Question: How did the IC50 [1] turn out when `Nc1ccc(CNc2ncc3ncnc(Nc4ccc(F)c(Cl)c4)c3n2)cc1` was run?
Answer: Its IC50 is greater than 10 nM.

Question: For `NCC1CCCC(CNc2ncc3ncnc(Nc4ccc(F)c(Cl)c4)c3n2)C1` (stereo not drawn), which IC50 [1] is on record?
Answer: Its IC50 is greater than 1 nM.

Question: How did the IC50 [1] turn out when `NCCCNc1ncc2ncnc(Nc3ccc(F)c(Cl)c3)c2n1` was run?
Answer: The IC50 was greater than 10 nM.

Question: `O=C(N[C@H]1CC[C@H](CNc2ncc3ncnc(Nc4ccc(F)c(Cl)c4)c3n2)CC1)OCc1ccccc1` was tested. Which IC50 [1] did it give?
Answer: Its IC50 is greater than 10 nM.

Question: Which IC50 [1] does the source give for `CN1CCC(N(C)c2ncc3ncnc(Nc4ccc(F)c(Cl)c4)c3n2)CC1` here?
Answer: Its IC50 is 10 nM.

Question: How did the IC50 [1] turn out when `CCN(CC)CC(C)Nc1ncc2ncnc(Nc3ccc(F)c(Cl)c3)c2n1` (stereo not drawn) was run?
Answer: Its IC50 is greater than 1 nM.

Question: What about the IC50 [2] of the same compound?
Answer: Its IC50 is 100 to 1000 nM.

Question: Which IC50 [1] does the source give for `NC1CCCN(c2ncc3ncnc(Nc4ccc(F)c(Cl)c4)c3n2)CC1` (stereo not drawn) here?
Answer: Its IC50 is greater than 1 nM.

Question: Which IC50 [1] does the source give for `CC(C)(N)CNc1ncc2ncnc(Nc3ccc(F)c(Cl)c3)c2n1` here?
Answer: Its IC50 is greater than 10 nM.

Question: For `Fc1ccc(Nc2ncnc3cnc(N4CCC(N5CCOCC5)CC4)nc23)cc1Cl`, which IC50 [1] is on record?
Answer: Its IC50 is greater than 20 nM.

Question: How did the IC50 [1] turn out when `Nc1c(Br)cc(Nc2ncnc3cnc(N4CCC(N)CC4)nc23)cc1Br` was run?
Answer: The IC50 was greater than 1 nM.

— the Kinase Knowledgebase extract (Sharma et al. 2016)
